Measured values published in patent US12180187B2, “1-phenyl-5-azinylpyrazolyl-3-oxyalkyl acids and their use for controlling unwanted plant growth” (BAYER AKTIENGESELLSCHAFT, priority 2019, dated 2024).

Key:
ALOMY [1] = test: Pre-emergence action against ALOMY, 1280 g/ha; type: in vivo, Alopecurus myosuroides; conditions: visual scoring after about 3 weeks vs untreated controls, 100% = plants have died, 0% = like control plants
Method in brief: (§1)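 Sandy loam pots, seeds covered with soil; aqueous WP/EC spray on covering soil, 0.5% additive, 600 L/ha. Greenhouse growth, good conditions. Readout: visual % activity at ~3 weeks (0% = like control, 100% = dead).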

DIGSA [2] = test: Pre-emergence action against DIGSA, 1280 g/ha; type: in vivo, Digitaria sanguinalis; conditions: visual scoring after about 3 weeks vs untreated controls, 100% = plants have died, 0% = like control plants
Method in brief: as §1

ECHCG [3] = test: Pre-emergence action against ECHCG, 1280 g/ha; type: in vivo, Echinochloa crus-galli; conditions: visual scoring after about 3 weeks vs untreated controls, 100% = plants have died, 0% = like control plants
Method in brief: as §1

LOLRI [4] = test: Pre-emergence action against LOLRI, 1280 g/ha; type: in vivo, Lolium rigidum; conditions: visual scoring after about 3 weeks vs untreated controls, 100% = plants have died, 0% = like control plants
Method in brief: as §1

POAAN [5] = test: Pre-emergence action against POAAN, 1280 g/ha; type: in vivo, Poa annua; conditions: visual scoring after about 3 weeks vs untreated controls, 100% = plants have died, 0% = like control plants
Method in brief: as §1

SETVI [6] = test: Pre-emergence action against SETVI, 1280 g/ha; type: in vivo, Setaria viridis; conditions: visual scoring after about 3 weeks vs untreated controls, 100% = plants have died, 0% = like control plants
Method in brief: as §1

AMARE [7] = test: Pre-emergence action against AMARE, 1280 g/ha; type: in vivo, Amaranthus retroflexus; conditions: scored visually after about 3 weeks vs untreated controls (100% = plants have died)
Method in brief: as §1

KCHSC [8] = test: Pre-emergence action against KCHSC, 1280 g/ha; type: in vivo, Bassia scoparia; conditions: scored visually after about 3 weeks vs untreated controls (100% = plants have died)
Text: 1. Pre-Emergence Herbicidal Effect and Crop Plant Compatibility a) Seeds of mono- and dicotyledonous weed plants are placed in plastic pots in sandy loam soil (doubly sown with one species each of mono- or dicotyledonous weed plants per pot) and covered with soil. The compounds of the invention, formulated in the form of wettable powders (WP) or as emulsion concentrates (EC), are then applied onto the surface of the covering soil as aqueous suspension or emulsion with addition of 0.5% additive at a water application rate equivalent to 600 litres per hectare. After the treatment, the pots are placed in a greenhouse and kept under good growth conditions for the trial plants. After about 3 weeks, the effect of the preparations is scored visually in comparison with untreated controls as percentages. For example, 100% activity=the plants have died, 0% activity=like control plants. 1. Pre-Emergence Effectiveness Tables 1 to 12 below show the effects of selected compounds of the general formula (I) according to Tables 1 and 2 on various harmful plants and at an application rate corresponding to 1280 g/ha, which were obtained by the experimental procedure mentioned above.

MATIN [9] = test: Pre-emergence action against MATIN, 1280 g/ha; type: in vivo, Tripleurospermum inodorum (Matricaria inodora); conditions: scored visually after about 3 weeks vs untreated controls (100% = plants have died)
Method in brief: as §1

STEME [10] = test: Pre-emergence action against STEME, 1280 g/ha; type: in vivo, Stellaria media; conditions: scored visually after about 3 weeks vs untreated controls (100% = plants have died)
Method in brief: as §1

VERPE [11] = test: Pre-emergence action against VERPE, 1280 g/ha; type: in vivo, Veronica persica; conditions: scored visually after about 3 weeks vs untreated controls (100% = plants have died)
Method in brief: as §1

ALOMY [12] = test: Post-emergence action against ALOMY, 1.28 kg/ha; type: in vivo, Alopecurus myosuroides; conditions: dosage 1280 g/ha, visual rating about 3 weeks after treatment vs untreated controls
Method in brief: (§2)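 Percent activity was scored visually ~3 wk post-spray relative to untreated plants. Treatment was post-emergence at the one-leaf stage using WP/EC in water with 0.5% additive (600 L/ha).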

DIGSA [13] = test: Post-emergence action against DIGSA, 1.28 kg/ha; type: in vivo, Digitaria sanguinalis; conditions: dosage 1280 g/ha, visual rating about 3 weeks after treatment vs untreated controls
Method in brief: as §2

ECHCG [14] = test: Post-emergence action against ECHCG, 1.28 kg/ha; type: in vivo, Echinochloa crus-galli; conditions: dosage 1280 g/ha, visual rating about 3 weeks after treatment vs untreated controls
Method in brief: as §2

LOLRI [15] = test: Post-emergence action against LOLRI, 1.28 kg/ha; type: in vivo, Lolium rigidum; conditions: dosage 1280 g/ha, visual rating about 3 weeks after treatment vs untreated controls
Method in brief: as §2

POAAN [16] = test: Post-emergence action against POAAN, 1.28 kg/ha; type: in vivo, Poa annua; conditions: dosage 1280 g/ha, visual rating about 3 weeks after treatment vs untreated controls
Method in brief: as §2

ABUTH = test: Post-emergence action against ABUTH, 1.28 kg/ha; type: in vivo, Abutilon theophrasti; conditions: dosage 1280 g/ha, visual rating about 3 weeks after treatment vs untreated controls (100% = plants died)
Method in brief: as §2

AMARE [17] = test: Post-emergence action against AMARE, 1.28 kg/ha; type: in vivo, Amaranthus retroflexus; conditions: dosage 1280 g/ha, visual rating about 3 weeks after treatment vs untreated controls (100% = plants died)
Method in brief: as §2

MATIN [18] = test: Post-emergence action against MATIN, 1.28 kg/ha; type: in vivo, Tripleurospermum inodorum (Matricaria inodora); conditions: dosage 1280 g/ha, visual rating about 3 weeks after treatment vs untreated controls (100% = plants died)
Method in brief: as §2

STEME [19] = test: Post-emergence action against STEME, 1.28 kg/ha; type: in vivo, Stellaria media; conditions: dosage 1280 g/ha, visual rating about 3 weeks after treatment vs untreated controls (100% = plants died)
Method in brief: as §2

VERPE [20] = test: Post-emergence action against VERPE, 1.28 kg/ha; type: in vivo, Veronica persica; conditions: dosage 1280 g/ha, visual rating about 3 weeks after treatment vs untreated controls (100% = plants died)
Method in brief: as §2

SETVI [21] = test: Post-emergence action against SETVI, 1.28 kg/ha; type: in vivo, Setaria viridis; conditions: dosage 1280 g/ha, visual rating about 3 weeks after treatment vs untreated controls
Method in brief: as §2

KCHSC [22] = test: Post-emergence action against KCHSC, 1.28 kg/ha; type: in vivo, Bassia scoparia; conditions: dosage 1280 g/ha, visual rating about 3 weeks after treatment vs untreated controls (100% = plants died)
Procedure: • a) Seeds of mono- and dicotyledonous weed plants are placed in plastic pots in sandy loam soil (twin sowing with one species each of mono- or dicotyledonous weed plants per pot), covered with soil and cultivated in a greenhouse under controlled growth conditions. 2 to 3 weeks after sowing, the test plants are treated at the one-leaf stage. The compounds of the invention, formulated in the form of wettable powders (WP) or as emulsion concentrates (EC), are applied to the green parts of the plants as aqueous suspension or emulsion with addition of 0.5% additive at a water application rate equivalent to 600 litres per hectare. After the test plants have been kept in the greenhouse under optimum growth conditions for about 3 weeks, the activity of the preparations is rated visually in comparison to untreated controls. For example, 100% activity=the plants have died, 0% activity=like control plants. As shown by the results, compounds of the general formula (I) of the invention, in post-emergence treatment, have very good herbicidal efficacy (90% to 100% herbicidal action) against harmful plants such as Abutilon theophrasti, Digitaria sanguinalis, Echinochloa crus-galli, Matricaria inodora, Poa annua, at an application rate of 1.28 kg of active substance per hectare.

ALOMY [23] = test: Pre-emergence action at 320 g/ha against ALOMY; type: in vivo, Alopecurus myosuroides; conditions: scored visually after about 3 weeks vs untreated controls (100% = plants have died)
Method in brief: (§3)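 WP/EC formulations applied pre-emergence to covering soil, water rate 600 l/ha, 0.5% additive. Greenhouse, ~3 weeks. Visual % damage vs untreated (0–100%).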

DIGSA [24] = test: Pre-emergence action at 320 g/ha against DIGSA; type: in vivo, Digitaria sanguinalis; conditions: visual scoring after about 3 weeks vs untreated controls
Method in brief: as §3

SETVI [25] = test: Pre-emergence action at 320 g/ha against SETVI; type: in vivo, Setaria viridis; conditions: visual scoring after about 3 weeks vs untreated controls
Method in brief: as §3

AMARE [26] = test: Pre-emergence action at 320 g/ha against AMARE; type: in vivo, Amaranthus retroflexus; conditions: visual scoring after about 3 weeks vs untreated controls
Method in brief: as §3

MATIN [27] = test: Pre-emergence action at 320 g/ha against MATIN; type: in vivo, Tripleurospermum inodorum (Matricaria inodora); conditions: visual scoring after about 3 weeks vs untreated controls
Method in brief: as §3

POLCO = test: Pre-emergence action at 320 g/ha against POLCO; type: in vivo, Fallopia convolvulus (Polygonum convolvulus); conditions: visual scoring after about 3 weeks vs untreated controls
Method in brief: as §3

VERPE [28] = test: Pre-emergence action at 320 g/ha against VERPE; type: in vivo, Veronica persica; conditions: visual scoring after about 3 weeks vs untreated controls
Method in brief: as §3

VIOTR = test: Pre-emergence action at 320 g/ha against VIOTR; type: in vivo, Viola tricolor; conditions: dosage 320 g/ha
Method in brief: as §3

ALOMY [29] = test: Post-emergence action against ALOMY, 320 g/ha; type: in vivo, Alopecurus myosuroides; conditions: dosage 320 g/ha, visual rating about 3 weeks after treatment vs untreated controls (100% = plants died)
Text: Accordingly, the compounds of the invention have good herbicidal action against a broad spectrum of weed grasses and broad-leaved weeds and are therefore suitable for controlling unwanted vegetation by the post-emergence method. • b) Seeds of monocotyledonous and dicotyledonous weeds and crop plants are placed in sandy loam in plastic or organic planting pots, covered with soil and cultivated in a greenhouse under controlled growth conditions. 2 to 3 weeks after sowing, the test plants are treated at the one-leaf stage. The compounds of the invention, formulated in the form of wettable powders (WP) or as emulsion concentrates (EC), are then sprayed onto the green parts of the plants as aqueous suspension or emulsion with addition of 0.5% additive at a water application rate of 600 l/ha (converted). After the test plants have been kept in the greenhouse under optimum growth conditions for about 3 weeks, the activity of the preparations is rated visually in comparison to untreated controls. For example, 100% activity=the plants have died, 0% activity=like control plants. Tables 39 to 49 below show the effects of selected compounds of the general formula (I) according to Tables 1 and 2 on various harmful plants and at an application rate corresponding to 320 g/ha, which were obtained by the experimental procedure mentioned above.

| SMILES | Pre-emergence action against ALOMY (ALOMY [1]) [%] | Pre-emergence action against DIGSA (DIGSA [2]) [%] | Pre-emergence action against ECHCG (ECHCG [3]) [%] | Pre-emergence action against LOLRI (LOLRI [4]) [%] | Pre-emergence action against POAAN (POAAN [5]) [%] | Pre-emergence action against SETVI (SETVI [6]) [%] | Pre-emergence action against AMARE (AMARE [7]) [%] | Pre-emergence action against MATIN (MATIN [9]) [%] | Pre-emergence action against STEME (STEME [10]) [%] | Pre-emergence action against VERPE (VERPE [11]) [%] | Post-emergence action against ALOMY (ALOMY [12]) [%] | Post-emergence action against DIGSA (DIGSA [13]) [%] | Post-emergence action against ECHCG (ECHCG [14]) [%] | Post-emergence action against LOLRI (LOLRI [15]) [%] | Post-emergence action against POAAN (POAAN [16]) [%] | Post-emergence action against ABUTH (ABUTH) [%] | Post-emergence action against AMARE (AMARE [17]) [%] | Post-emergence action against MATIN (MATIN [18]) [%] | Post-emergence action against STEME (STEME [19]) [%] | Post-emergence action against VERPE (VERPE [20]) [%] | other results |
| --- | --- | --- | --- | --- | --- | --- | --- | --- | --- | --- | --- | --- | --- | --- | --- | --- | --- | --- | --- | --- | --- |
| CCOC(=O)COc1nn(-c2ccccc2C)c(-c2ccc(F)nc2)c1I [VII-058] | 90 | 100 | 100 | 100 | 100 | 100 | 100 | 100 | 100 | 100 | 100 | 100 | 100 | 100 | 100 | 90 | 100 | 90 | 90 | 90 | Pre-emergence action against KCHSC (KCHSC [8]): 90% |
| CONC(=O)COc1nn(-c2ccccc2F)c(-c2ccc(F)nc2)c1Br [VII-068] | 100 | 100 | 100 | 100 | 100 | 100 | 100 | 100 | 100 | 100 | 100 | 100 | 100 | 100 | 100 | 100 | 100 | 90 | – | 100 | Post-emergence action against SETVI (SETVI [21]): 90%; Post-emergence action against KCHSC (KCHSC [22]): 90% |
| CCOC(=O)COc1nn(-c2ccccc2C)c(-c2ccc(F)nc2)c1C(F)(F)F [VII-105] | 100 | 100 | 100 | 100 | 100 | 100 | 100 | 90 | 100 | 100 | 100 | 100 | 100 | – | 100 | – | – | 100 | 100 | 90 | Pre-emergence action at 320 g/ha against ALOMY in % (ALOMY [23]): 90%; Pre-emergence action against DIGSA in % (DIGSA [24]): 100%; Pre-emergence action against SETVI in % (SETVI [25]): 80%; Pre-emergence action against AMARE in % (AMARE [26]): 90%; Pre-emergence action against MATIN in % (MATIN [27]): 100%; Pre-emergence action against POLCO in % (POLCO): 90%; Pre-emergence action against VERPE in % (VERPE [28]): 90%; Pre-emergence action against VIOTR in % (VIOTR): 90%; Post-emergence action against ALOMY (ALOMY [29]): 90% |
